Patent US5968907A (priority 1997, dated 1999)

These molecules were tested against heat-labile enterotoxin from E. coli (Escherichia coli, UniProt P0CK94) (assay: not given). Details: at the concentration employed in the assay.
Type: binding

heat-labile enterotoxin from E. coli, sequence (P0CK94 whole entry, looked up): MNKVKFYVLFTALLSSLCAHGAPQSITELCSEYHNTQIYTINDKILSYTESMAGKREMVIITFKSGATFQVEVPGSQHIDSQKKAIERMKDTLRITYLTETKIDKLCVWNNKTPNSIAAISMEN

In the case of `O=C(O)CNC1C2CCC(C2)C1CS[C@@H]1O[C@H](CO)[C@H](O)[C@H](O)[C@H]1O` (stereo partly drawn) [Example E4, Nα-[3-((1-Thio-β-D-galactopyranosyl)methyl)norborn-2-yl]glycine], the “inhibition of binding of heat-labile enterotoxin to ganglioside GD1b” value (“inhibition of binding … to ganglioside GD1b” for short) is reported as “at least 20%”.
With `CC(=O)NC1CC(S[C@@H]2O[C@H](CO)[C@H](O)[C@H](O)[C@H]2O)CCC1(C)C` (stereo partly drawn) [Example C11, 3-Acetamido-4,4-dimethylcyclohexyl 1-Thio-β-D-galactopyranoside] the “inhibition of binding … to ganglioside GD1b” value was “at least 20%”.
For `CC1(C)CCC(S[C@@H]2O[C@H](CO)[C@H](O)[C@H](O)[C@H]2O)CC1O` (stereo partly drawn) [Example A11, 4,4Dimethyl-3-hydroxycyclohex-1-yl 1-Thio-β-D-galactopyranoside], the “inhibition of binding … to ganglioside GD1b” value was “at least 20%”.
With `O=C(O)CNC1CCCC(S[C@@H]2O[C@H](CO)[C@H](O)[C@H](O)[C@H]2O)C1` (stereo partly drawn) [Example E10, Nα-[3-(1-Thio-β-D-galactopyranosyl)cyclohex-1-yl]glycine] the “inhibition of binding … to ganglioside GD1b” value was “at least 20%”.

Each molecule was assayed against cholera toxin (Vibrio cholerae serotype O1, UniProt P01556) (assay: biochemical). Details: read-out: inhibition of binding of cholera toxin to ganglioside GD1b.
cholera toxin, sequence (P01556 22-124 limits assumed): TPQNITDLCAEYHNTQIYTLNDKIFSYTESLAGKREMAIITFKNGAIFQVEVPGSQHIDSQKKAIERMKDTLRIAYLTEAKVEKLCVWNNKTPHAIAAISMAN

`CC(CC(C)S[C@@H]1O[C@H](CO)[C@H](O)[C@H](O)[C@H]1O)N[C@@H](Cc1c[nH]c2ccccc12)C(=O)O` (stereo partly drawn) [Example I8, Nα-[4-(1-Thio-β-D-galactopyranosyl)pent-2-yl]-L-tryptophan] and `CC(CC(S[C@@H]1O[C@H](CO)[C@H](O)[C@H](O)[C@H]1O)c1ccccc1)N[C@@H](Cc1c[nH]c2ccccc12)C(=O)O` (stereo partly drawn) [Example I3, Nα-[4-Phenyl-4-(1-thio-β-D-galactopyranosyl)but-2-yl]-L-tryptophan] cannot be ordered by inhibition at 1000 µg/mL: less than 20% for the first, no less than 20% for the second.

`CC(=O)NC1CCCC1S[C@@H]1O[C@H](CO)[C@H](O)[C@H](O)[C@H]1O` (stereo partly drawn) [Example C1, 2-Acetamidocyclopent-1-yl 1-Thio-β-D-galactopyranoside] and `O=C(O)c1ccccc1C(=O)NC1CCCC1S[C@@H]1O[C@H](CO)[C@H](O)[C@H](O)[C@H]1O` (stereo partly drawn) [Example D1, 2-(2-Carboxybenzamido)cyclopent-1-yl 1-Thio-β-D-galactopyranoside] cannot be ordered by inhibition at 1000 µg/mL: less than 20% for the first, no less than 20% for the second.

`CC1(C)CC(NCCC(=O)O)CC1S[C@@H]1O[C@H](CO)[C@H](O)[C@H](O)[C@H]1O` (stereo partly drawn) [Example F6, Nβ-[4,4-Dimethyl-3-(1-thio-β-D-galactopyranosyl)-cyclopent-1-yl]-βalanine] and `CC1(C)CCC(NCCC(=O)O)CC1S[C@@H]1O[C@H](CO)[C@H](O)[C@H](O)[C@H]1O` (stereo partly drawn) [Example F9, Nβ-[4,4Dimethyl-3-(1-thio-β-D-galactopyranosyl)-cyclohex-1-yl]-β-alanime] cannot be ordered by inhibition at 1000 µg/mL: less than 20% for the first, less than 20% for the second.

`N=C(N)NCCC[C@H](NC1CCCC1S[C@@H]1O[C@H](CO)[C@H](O)[C@H](O)[C@H]1O)C(=O)O` (stereo partly drawn) [Example J1, Nα-[2-(1-Thio-β-D-galactopyranosyl)cyclopent-1-yl]-L-arginine] and `N=C(N)NCCC[C@H](NC1CCCC(S[C@@H]2O[C@H](CO)[C@H](O)[C@H](O)[C@H]2O)C1)C(=O)O` (stereo partly drawn) [Example J10, Nα-[3-(1-Thio-β-D-galactopyranosyl)cyclohex-1-yl]-L-arginine] cannot be ordered by inhibition at 1000 µg/mL: no less than 20% for the first, less than 20% for the second.

`CC(CC(C)S[C@@H]1O[C@H](CO)[C@H](O)[C@H](O)[C@H]1O)NC(=O)c1ccccc1C(=O)O` (stereo partly shown) [Example D8] and `CC(CC(S[C@@H]1O[C@H](CO)[C@H](O)[C@H](O)[C@H]1O)c1ccccc1)NC(=O)c1ccccc1C(=O)O` (stereo partly drawn) [Example D3, 3-(2-Carboxybenzamido)-1-phenylbut-1-yl 1-Thio-β-D-galactopyranoside] cannot be ordered by inhibition at 1000 µg/mL: no less than 20% for the first, less than 20% for the second.

`CC1(C)CC(N[C@@H](CCCNC(=N)N)C(=O)O)CC1S[C@@H]1O[C@H](CO)[C@H](O)[C@H](O)[C@H]1O` (stereo partly drawn) [Example J6, Nα-[4,4-Dimethyl-3-(1-thio-β-D-galactopyranosyl)-cyclopent-1-yl]-L-arginine] and `N=C(N)NCCC[C@H](NC1CCCCC(S[C@@H]2O[C@H](CO)[C@H](O)[C@H](O)[C@H]2O)C1)C(=O)O` (stereo partly drawn) [Example J5, Nα-[3-(1-Thio-β-D-galactopyranosyl)cyclohept-1-yl]-L-arginine] cannot be ordered by inhibition at 1000 µg/mL: less than 20% for the first, less than 20% for the second.

`CC(O)CC(C)S[C@@H]1O[C@H](CO)[C@H](O)[C@H](O)[C@H]1O` (stereo partly drawn) [Example A8, 4Hydroxypent-2-yl 1-Thio-β-D-galactopyranoside] and `CC(N)CC(C)S[C@@H]1O[C@H](CO)[C@H](O)[C@H](O)[C@H]1O` (stereo partly drawn) [Example B8, 4-Aminopent-2-yl 1-Thio-β-D-galactopyranoside] cannot be ordered by inhibition at 1000 µg/mL: less than 20% for the first, no less than 20% for the second.

`CC(C)C[C@H](NC(C)CC(C)S[C@@H]1O[C@H](CO)[C@H](O)[C@H](O)[C@H]1O)C(=O)O` (stereo partly drawn) [Example G8, Nα-[4-(1-Thio-β-D-galactopyranosyl)pent-2-yl]-L-leucine] and `CC(C)C[C@H](NC(C)CC(S[C@@H]1O[C@H](CO)[C@H](O)[C@H](O)[C@H]1O)c1ccccc1)C(=O)O` (stereo partly drawn) [Example G3, Nα-[4-Phenyl-4-(1-thio-β-galactopyranosyl)but-2-yl]-L-leucine] cannot be ordered by inhibition at 1000 µg/mL: less than 20% for the first, less than 20% for the second.

`CC(O)CC(S[C@@H]1O[C@H](CO)[C@H](O)[C@H](O)[C@H]1O)c1ccccc1` (stereo partly drawn) [Example A3, 3-Hydroxy-1-phenylbut-1-yl 1-Thio-β-D-galactopyranoside] and `CC(N)CC(S[C@@H]1O[C@H](CO)[C@H](O)[C@H](O)[C@H]1O)c1ccccc1` (stereo partly drawn) [Example B3, 3-Amino-1-phenylbut-1-yl 1-Thio-β-D-galactopyranoside] cannot be ordered by inhibition at 1000 µg/mL: less than 20% for the first, less than 20% for the second.

`CC1(C)CCC(NCC(=O)O)CC1S[C@@H]1O[C@H](CO)[C@H](O)[C@H](O)[C@H]1O` (stereo partly drawn) [Example E9, Nα-[4,4-Dimethyl-3-(1-thio-β-D-galactopyranosyl)-cyclohex-1-yl]glycine] and `CC(C)C[C@H](NC1CCC(C)(C)C(S[C@@H]2O[C@H](CO)[C@H](O)[C@H](O)[C@H]2O)C1)C(=O)O` (stereo partly drawn) [Example G9, Nα-[4,4-Dimethyl-3-(1-thio-β-D-galactopyranosyl)-cyclohex-1-yl]-L-leucine] cannot be ordered by inhibition at 1000 µg/mL: less than 20% for the first, less than 20% for the second.

`CC(C)C[C@H](NC1CCC(S[C@@H]2O[C@H](CO)[C@H](O)[C@H](O)[C@H]2O)C1)C(=O)O` (stereo partly drawn) [Example G7, Nα-[3-(1-Thio-β-D-galactopyranosyl)cyclopent-1-yl]-L-leucine] and `CC(C)C[C@H](NC1CCCC(S[C@@H]2O[C@H](CO)[C@H](O)[C@H](O)[C@H]2O)C1)C(=O)O` (stereo partly drawn) [Example G10, Nα-[3-(1-Thio-β-D-galactopyranosyl)cyclohex-1-yl]-L-leucine] cannot be ordered by inhibition at 1000 µg/mL: less than 20% for the first, less than 20% for the second.

`CC(CC(S[C@@H]1O[C@H](CO)[C@H](O)[C@H](O)[C@H]1O)c1ccccc1)N[C@@H](CCCNC(=N)N)C(=O)O` (stereo partly drawn) [Example J3, Nα-[4-Phenyl-4-(1-Thio-β-D-galactopyranosyl)but-2-yl]-L-arginine] and `CC(CC(C)S[C@@H]1O[C@H](CO)[C@H](O)[C@H](O)[C@H]1O)N[C@@H](CCCNC(=N)N)C(=O)O` (stereo partly drawn) [Example J8, Nα-[4-(1-Thio-β-D-galactopyranosyl)pent-2-yl]-L-arginine] cannot be ordered by inhibition at 1000 µg/mL: no less than 20% for the first, less than 20% for the second.

`CC1(C)CC(N)CC1S[C@@H]1O[C@H](CO)[C@H](O)[C@H](O)[C@H]1O` (stereo partly drawn) [Example B6, 2,2-Dimethyl-4aminocyclopent-1-yl 1-Thio-β-D-galactopyranoside] and `CC1(C)CC(O)CC1S[C@@H]1O[C@H](CO)[C@H](O)[C@H](O)[C@H]1O` (stereo partly drawn) [Example A6, 2,2-Dimethyl-4-hydroxycyclopent-1-yl 1-Thio-β-D-galactopyranoside] cannot be ordered by inhibition at 1000 µg/mL: no less than 20% for the first, less than 20% for the second.

`CC(CC(C)S[C@@H]1O[C@H](CO)[C@H](O)[C@H](O)[C@H]1O)NCC(=O)O` (stereo partly drawn) [Example E8, Nα-[4-(1-Thio-β-D-galactopyranosyl)pent-2-yl]glycine] and `CC(=O)NC(C)CC(C)S[C@@H]1O[C@H](CO)[C@H](O)[C@H](O)[C@H]1O` (stereo partly drawn) [Example C8, 4-Acetamidopent-2-yl 1-Thio-β-D-galactopyranoside] cannot be ordered by inhibition at 1000 µg/mL: less than 20% for the first, less than 20% for the second.

`CC1CCC(NC2CC(S[C@@H]3O[C@H](CO)[C@H](O)[C@H](O)[C@H]3O)C(C)(C)C2)C1` (stereo partly drawn) [Example B6Q, 2,2-Dimethyl-4-(3-methylcyclopent-1-ylamino)-cyclopent-1-yl 1-Thio-β-D-galactopyranoside] and `CC1CCCC(NC2CC(S[C@@H]3O[C@H](CO)[C@H](O)[C@H](O)[C@H]3O)C(C)(C)C2)C1` (stereo partly drawn) [Example B6T, 2,2-Dimethyl-4-(3-methylcyclohex-1-ylamino)-cyclopent-1-yl 1-Thio-β-D-galactopyranoside] cannot be ordered by inhibition at 1000 µg/mL: no less than 20% for the first, no less than 20% for the second.

`CC(=O)NC(C)CC(S[C@@H]1O[C@H](CO)[C@H](O)[C@H](O)[C@H]1O)c1ccccc1` (stereo partly drawn) [Example C3, 3-Acetamido-1-phenylbut-1-yl 1-Thio-β-D-galactopyranoside] and `CC1(C)CCC(N[C@@H](Cc2c[nH]c3ccccc23)C(=O)O)CC1S[C@@H]1O[C@H](CO)[C@H](O)[C@H](O)[C@H]1O` (stereo partly drawn) [Example I9, Nα-[4,4-Dimethyl-3-(1-thio-β-D-galactopyranosyl)-cyclohex-1-yl]-L-tryptophan] cannot be ordered by inhibition at 1000 µg/mL: less than 20% for the first, less than 20% for the second.

`O=C(O)[C@H](Cc1c[nH]c2ccccc12)NC1CCCC(S[C@@H]2O[C@H](CO)[C@H](O)[C@H](O)[C@H]2O)C1` (stereo partly drawn) [Example I10, Nα-[3-(1-Thio-β-D-galactopyranosyl)cyclohex-1-yl]-L-tryptophan] and `O=C(O)CNC1CCCCC(S[C@@H]2O[C@H](CO)[C@H](O)[C@H](O)[C@H]2O)C1` (stereo partly drawn) [Example E5, Nα-[3-(1-Thio-β-D-galactopyranosyl)cyclohept-1-yl]glycine] cannot be ordered by inhibition at 1000 µg/mL: less than 20% for the first, less than 20% for the second.

`CC1CCC(NC2CC(S[C@@H]3O[C@H](CO)[C@H](O)[C@H](O)[C@H]3O)C(C)(C)C2)CC1` (stereo partly drawn) [Example B6L, 2,2-Dimethyl-4-(4-methylcyclohex-1-ylamino)-cyclopent-1-yl 1-Thio-β-D-galactopyranoside] and `CNC1CC(S[C@@H]2O[C@H](CO)[C@H](O)[C@H](O)[C@H]2O)C(C)(C)C1` (stereo partly drawn) [Example B6A, 2,2-Dimethyl-4-(methylamino)-cyclopent-1-yl 1-Thio-β-D-galactopyranoside] cannot be ordered by inhibition at 1000 µg/mL: no less than 20% for the first, no less than 20% for the second.
